Data published in patent US11149023B2, “Substituted triazole derivatives and uses thereof” (Bayer Pharma Aktiengesellschaft, priority 2017, dated 2021).

What was measured:
human V1a receptor = human V1a receptor (Homo sapiens (Human), UniProt P37288); test: Cellular in vitro assay for determining vasopressin receptor activity (V1a, aequorin luminescence); type: cell-based; settings: for IC50: CHO cell line transfected with human V1a receptor, [Arg8]-vasopressin at EC50 concentration, read-out: IC50 hV1a; for ratio IC50 hV2/hV1a: selectivity, IC50 hV2 divided by IC50 hV1a
Sequence of human V1a receptor (P37288 whole entry): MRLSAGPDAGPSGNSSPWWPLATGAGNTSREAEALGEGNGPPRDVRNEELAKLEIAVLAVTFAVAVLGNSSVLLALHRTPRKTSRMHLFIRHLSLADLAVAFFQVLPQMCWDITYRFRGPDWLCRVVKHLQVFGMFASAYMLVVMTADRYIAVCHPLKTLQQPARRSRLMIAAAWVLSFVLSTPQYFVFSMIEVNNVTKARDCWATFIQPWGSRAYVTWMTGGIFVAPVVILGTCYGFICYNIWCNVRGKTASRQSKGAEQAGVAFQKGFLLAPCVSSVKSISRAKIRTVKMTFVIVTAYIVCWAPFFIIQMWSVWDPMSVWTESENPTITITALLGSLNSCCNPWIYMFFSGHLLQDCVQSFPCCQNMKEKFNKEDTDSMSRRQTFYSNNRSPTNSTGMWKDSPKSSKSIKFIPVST
Procedure: (§1) B-1. Cellular In Vitro Assay for Determining Vasopressin Receptor Activity
(§2) The identification of agonists and antagonists of the V1a and V2 vasopressin receptors from humans, rats and dogs as well as the quantification of the activity of the compounds of the invention is carried out using recombinant cell lines. These cell lines originally derive from a hamster's ovary epithelial cell (Chinese Hamster Ovary, CHO K1, ATCC: American Type Culture Collection, Manassas, Va. 20108, USA). The test cell lines constitutively express the human, rat or dog V1a or V2 receptors. In case of the Gαq-coupled V1a receptors, cells are also stably transfected with a modified form of the calcium-sensitive photoproteins aequorin (human and rat V1a) or obe-lin (dog V1a), which, after reconstitution with the cofactor coelenterazine, emit light when there are increases in free calcium concentrations [Rizzuto R, Simpson A W, Brini M, Pozzan T, Nature 358, 325-327 (1992); Illarionov B A, Bondar V S, Illarionova V A, Vysotski E S, Gene 153 (2), 273-274 (1995)]. The resulting vasopressin receptor cells react to stimulation of the recombinantly expressed Via receptors by intracellular release of calcium ions, which can be quantified by the resulting photoprotein luminescence. The Gs-coupled V2 receptors are stably transfected into cell lines expressing the gene for firefly luciferase under control of a CRE-responsible promoter. Activation of V2 receptors induces the activation of the CRE-responsive promoter via cAMP increase, thereby inducing the expression of firefly luciferase. The light emitted by photoproteins of V1a cell lines as well as the light emitted by firefly luciferase of V2 cell lines corresponds to the activation or inhibition of the respective vasopressin receptor. The bioluminescence of the cell lines is detected using a suitable luminometer [Milligan G, Marshall F, Rees S, Trends in Pharmacological Sciences 17, 235-237 (1996)].
Vasopressin V1a Receptor Cell Lines:
On the day before the assay, the cells are plated out in culture medium (DMEM/F12, 2% FCS, 2 mM glutamine, 10 mM HEPES, 5 μg/ml coelenterazine) in 384-well microtiter plates and kept in a cell incubator (96% humidity, 5% v/v CO2, 37° C.). On the day of the assay, test compounds in various concentrations are placed for 10 minutes in the wells of the microtiter plate before the agonist [Arg^8]-vasopressin at EC50 concentration is added. The resulting light signal is measured immediately in a luminometer.
(§3) Table 1A below lists individual IC50 values for the compounds of the invention (including racemic mixtures as well as separated enantiomers) that were obtained from cell lines transfected with the human Via or V2 receptor: […]

human V2 receptor = human V2 receptor (Homo sapiens (Human), UniProt P30518); test: Cellular in vitro assay for determining vasopressin receptor activity (V2, CRE-luciferase); type: cell-based; settings: CHO cell line transfected with human V2 receptor; [Arg8]-vasopressin at EC50 concentration; read-out: IC50 hV2
Sequence of human V2 receptor (P30518 whole entry): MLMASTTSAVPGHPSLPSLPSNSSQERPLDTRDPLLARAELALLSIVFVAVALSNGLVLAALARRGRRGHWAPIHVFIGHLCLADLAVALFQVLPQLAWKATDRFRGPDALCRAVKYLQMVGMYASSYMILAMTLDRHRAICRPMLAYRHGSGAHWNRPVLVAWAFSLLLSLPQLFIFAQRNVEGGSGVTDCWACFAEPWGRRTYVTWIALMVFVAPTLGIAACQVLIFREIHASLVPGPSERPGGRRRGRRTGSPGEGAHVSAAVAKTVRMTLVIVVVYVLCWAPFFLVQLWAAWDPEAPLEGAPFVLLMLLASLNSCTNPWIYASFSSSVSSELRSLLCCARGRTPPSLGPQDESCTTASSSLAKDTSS
Procedure: as §1, §2
Vasopressin V2 Receptor Cell Lines:
On the day before the assay, the cells are plated out in culture medium (DMEM/F12, 2% FCS, 2 mM glutamine, 10 mM HEPES) in 384-well microtiter plates and kept in a cell incubator (96% humidity, 5% v/v CO2, 37° C.). On the day of the assay, test compounds in various concentrations and the agonist [Arg^8]-vasopressin at EC50 concentration are added together to the wells, and plates are incubated for 3 hours in a cell incubator. Upon addition of the cell lysis reagent Triton™ and the substrate luciferin, luminescence of firefly luciferase is measured in a luminometer.
as §3

Structure (SMILES)	IC50 (human V1a receptor) [nM]	ratio IC50 hV2/hV1a (human V1a receptor)	IC50 (human V2 receptor) [nM]
CC(C)(C)OC(=O)NC1(C(=O)NC(Cn2c(-c3ccc(Cl)cc3)nn(Cc3ncn(-c4ncccc4Cl)n3)c2=O)C(F)(F)F)CC1 (racemic) [Example 26, tert-Butyl [1-({3-[3-(4-chlorophenyl)-1-{[1-(3-chloropyridin-2-yl)-1H-1,2,4-triazol-3-yl]methyl}-5-oxo-1,5-dihydro-4H-1,2,4-triazol-4-yl]-1,1,1-trifluoropropan-2-yl}carbamoyl)cyclopropyl]-carbamate]	9.15	9.0	82.5
NC1(C(=O)NC(Cn2c(-c3ccc(Cl)cc3)nn(Cc3ncn(-c4ncccc4Cl)n3)c2=O)C(F)(F)F)CC1 (racemic) [Example 27, 1-Amino-N-{3-[3-(4-chlorophenyl)-1-{[1-(3-chloropyridin-2-yl)-1H-1,2,4-triazol-3-yl]methyl}-5-oxo-1,5-dihydro-4H-1,2,4-triazol-4-yl]-1,1,1-trifluoropropan-2-yl}cyclopropanecarboxamide]	215	8.8	1900
NC1(C(=O)NC(Cn2c(-c3ccc(Cl)cc3)nn(Cc3ncn(-c4ncccc4Cl)n3)c2=O)C(F)(F)F)CCC1 (racemic) [Example 29, 1-Amino-N-{3-[3-(4-chlorophenyl)-1-{[1-(3-chloropyridin-2-yl)-1H-1,2,4-triazol-3-yl]methyl}-5-oxo-1,5-dihydro-4H-1,2,4-triazol-4-yl]-1,1,1-trifluoropropan-2-yl}cyclobutanecarboxamide]	5.65	36.0	203
O=C(CC(F)=C(F)F)NC(Cn1c(-c2ccc(Cl)cc2)nn(Cc2ncn(-c3ncccc3Cl)n2)c1=O)C(F)(F)F (racemic) [Example 31, N-{3-[3-(4-Chlorophenyl)-1-{[1-(3-chloropyridin-2-yl)-1H-1,2,4-triazol-3-yl]methyl}-5-oxo-1,5-dihydro-4H-1,2,4-triazol-4-yl]-1,1,1-trifluoropropan-2-yl}-3,4,4-trifluorobut-3-enamide]	3.4	32.1	109

The next compounds have a lower IC50 (human V1a receptor) than those just listed; values first:

IC50 (human V1a receptor) [nM]	ratio IC50 hV2/hV1a (human V1a receptor)	IC50 (human V2 receptor) [nM]	Structure (SMILES)
1.75	98.6	172	O=C(/C=C/C(F)(F)F)NC(Cn1c(-c2ccc(Cl)cc2)nn(Cc2ncn(-c3ncccc3Cl)n2)c1=O)C(F)(F)F (racemic) [Example 25, (2E)-N-{3-[3-(4-Chlorophenyl)-1-{[1-(3-chloropyridin-2-yl)-1H-1,2,4-triazol-3-yl]methyl}-5-oxo-1,5-dihydro-4H-1,2,4-triazol-4-yl]-1,1,1-trifluoropropan-2-yl}-4,4,4-trifluorobut-2-enamide]
1.7	28.2	48	O=C(NC(Cn1c(-c2ccc(Cl)cc2)nn(Cc2ncn(-c3ncccc3Cl)n2)c1=O)C(F)(F)F)C1CS(=O)(=O)C1 (racemic) [Example 38, N-{3-[3-(4-Chlorophenyl)-1-{[1-(3-chloropyridin-2-yl)-1H-1,2,4-triazol-3-yl]methyl}-5-oxo-1,5-dihydro-4H-1,2,4-triazol-4-yl]-1,1,1-trifluoropropan-2-yl}thietane-3-carboxamide 1,1-dioxide]
1.17	67.0	78.2	O=C(CCC(F)(F)F)NC(Cn1c(-c2ccc(Cl)cc2)nn(Cc2ncn(-c3ncccc3Cl)n2)c1=O)C(F)(F)F (racemic) [Example 32, N-{3-[3-(4-Chlorophenyl)-1-{[1-(3-chloropyridin-2-yl)-1H-1,2,4-triazol-3-yl]methyl}-5-oxo-1,5-dihydro-4H-1,2,4-triazol-4-yl]-1,1,1-trifluoropropan-2-yl}-4,4,4-trifluorobutanamide]
